Measurements taken from patent US20110183969A1, “ANTIFUNGAL COMBINATION THERAPY” (priority 2008, published 2011).
≈ marks a conversion by molar mass, not a printed value.

Assays:
Test in all cases: MIC (YAG medium)
Type in all cases: cell-based
Aspergillus flavus = conditions: YAG medium, MIC banded into grades; for MIC: Aspergillus flavus, read-out: MIC A. flavus (grade)
In short: (§1)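 OD 485 nm read-out after 24 h, 35° C; MIC = lowest concentration inhibiting growth >70% vs drug-free control, in mg/L. Medium YAG (1% glucose, 1% NH4Cl, 0.5% yeast extract); inoculum 1-2×10^4 cfu/mL; compound range 50-0.05 mg/L, repeated at 0.5-0.0005 mg/L […].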

[1] = system: Aspergillus fumigatus AF210; conditions: YAG medium, MIC banded into grades, AF210; for MIC: Aspergillus fumigatus, read-out: MIC A. fumigatus 210 (grade)
In short: as §1

Aspergillus terreus AT4 = conditions: YAG medium, MIC banded into grades, AT4; for MIC: Aspergillus terreus, read-out: MIC A. terreus (grade)
In short: as §1

Aspergillus niger = conditions: YAG medium, MIC banded into grades; for MIC: Aspergillus niger, read-out: MIC A. niger (grade)
In short: as §1

[2] = system: Aspergillus fumigatus AF293; conditions: YAG medium, MIC banded into grades, AF293; for MIC: Aspergillus fumigatus, read-out: MIC A. fumigatus (grade)
In short: as §1

Aspergillus terreus AT49 = conditions: YAG medium, MIC banded into grades, AT49; for MIC: Aspergillus terreus, read-out: MIC A. terreus 49 (grade)
In short: as §1

Cc1cc(C)nc(N2CCCN(c3ccc(NC(=O)C(=O)c4c(-c5ccccc5)cc5ccccn45)cc3)CC2)c1 [Example 54, N-{4-[4-(4,6-Dimethyl-pyridin-2-yl)-[1,4]diazepan-1-yl]-phenyl}-2-oxo-2-(2-phenyl-indolizin-3-yl)-acetamide]
MIC (Aspergillus flavus): < 1 µg/mL | MIC [1]: < 1 µg/mL | MIC (Aspergillus terreus AT4): < 1 µg/mL | MIC (Aspergillus niger): < 1 µg/mL | MIC [2]: < 1 µg/mL | MIC (Aspergillus terreus AT49): < 1 µg/mL

CC(C)c1ncc(C(C)(C)c2cccc(NC(=O)C(=O)c3c(-c4ccccc4)cc4ccccn34)c2)n1C [Example 15, N-{3-[1-(2-Isopropyl-3-methyl-3H-imidazol-4-yl)-1-methyl-ethyl]-phenyl}-2-oxo-2-(2-phenyl-indolizin-3-yl)-acetamide]
MIC (Aspergillus flavus): > 10 µg/mL | MIC [1]: > 10 µg/mL | MIC (Aspergillus terreus AT4): > 10 µg/mL | MIC (Aspergillus niger): > 10 µg/mL | MIC [2]: > 10 µg/mL | MIC (Aspergillus terreus AT49): > 10 µg/mL

Cc1cc(N2CCN(c3ccc(NC(=O)C(=O)c4c(-c5ccccc5)cc5ccccn45)cc3)CC2)cc(C)n1 [Example 52, N-{4-[4-(2,6-Dimethyl-pyridin-4-yl)-piperazin-1-yl]-phenyl}-2-oxo-2-(2-phenyl-indolizin-3-yl)-acetamide]
MIC (Aspergillus flavus): > 10 µg/mL | MIC [1]: > 10 µg/mL | MIC (Aspergillus terreus AT4): > 10 µg/mL | MIC (Aspergillus niger): > 10 µg/mL | MIC [2]: > 10 µg/mL | MIC (Aspergillus terreus AT49): > 10 µg/mL

Cc1nc(C(C)C)cn1C(C)(C)c1cccc(NC(=O)C(=O)c2c(-c3ccccc3)cc3ccccn23)c1 [Example 25]
MIC A. flavus (grade) (Aspergillus flavus): 2 (A grade of 2 represents an MIC of from 1 to 10) | MIC A. fumigatus 210 (grade) [1]: 1 (a grade of 1 represents an MIC of greater than 10 mg/L) | MIC A. terreus (grade) (Aspergillus terreus AT4): 2 (A grade of 2 represents an MIC of from 1 to 10) | MIC A. niger (grade) (Aspergillus niger): 1 (a grade of 1 represents an MIC of greater than 10 mg/L) | MIC A. fumigatus (grade) [2]: 1 (a grade of 1 represents an MIC of greater than 10 mg/L) | MIC A. terreus 49 (grade) (Aspergillus terreus AT49): 2 (A grade of 2 represents an MIC of from 1 to 10)

COCCN(C)c1ccc(N2CCN(c3ccc(NC(=O)C(=O)c4c(-c5ccccc5)cc5ccccn45)cc3)CC2)cn1 [Example 68, N-[4-(4-{6-[(2-Methoxy-ethyl)-methyl-amino]-pyridin-3-yl}-piperazin-1-yl)-phenyl]-2-oxo-2-(2-phenyl-indolizin-3-yl)-acetamide]
MIC (Aspergillus flavus): < 1 µg/mL | MIC [1]: < 1 µg/mL | MIC (Aspergillus terreus AT4): < 1 µg/mL | MIC (Aspergillus niger): < 1 µg/mL | MIC [2]: < 1 µg/mL | MIC (Aspergillus terreus AT49): < 1 µg/mL

C=C1CCN(c2ccc(NC(=O)C(=O)c3c(-c4cccnc4C)cc4ccccn34)cc2)CC1 [Example 46, N-[4-(4-Methylene-piperidin-1-yl)-phenyl]-2-[2-(2-methyl-pyridin-3-yl)-indolizin-3-yl]-2-oxo-acetamide]
MIC (Aspergillus flavus): < 1 µg/mL | MIC [1]: < 1 µg/mL | MIC (Aspergillus terreus AT4): < 1 µg/mL | MIC (Aspergillus niger): < 1 µg/mL | MIC [2]: < 1 µg/mL | MIC (Aspergillus terreus AT49): < 1 µg/mL

Cc1cc(C)nc(N(C)CCN(C)c2ccc(NC(=O)C(=O)c3c(-c4ccccc4)cc4ccccn34)cc2)c1 [Example 55, N-[4-({2-[(4,6-Dimethyl-pyridin-2-yl)-methyl-amino]-ethyl}-methyl-amino)-phenyl]-2-oxo-2-(2-phenyl-indolizin-3-yl)-acetamide]
MIC (Aspergillus flavus): < 1 µg/mL | MIC [1]: < 1 µg/mL | MIC (Aspergillus terreus AT4): < 1 µg/mL | MIC (Aspergillus niger): < 1 µg/mL | MIC [2]: < 1 µg/mL | MIC (Aspergillus terreus AT49): < 1 µg/mL

Cc1cc(C)nc(N2CCN(c3ccc(NC(=O)C(=O)c4c(-c5ccccc5)cc5ccc(F)cn45)cc3)CC2)c1 [Example 32, N-{4-[4-(4,6-Dimethyl-pyridin-2-yl)-piperazin-1-yl]-phenyl}-2-(6-fluoro-2-phenyl-indolizin-3-yl)-2-oxo-acetamide]
MIC (Aspergillus flavus): < 1 µg/mL | MIC [1]: < 1 µg/mL | MIC (Aspergillus terreus AT4): < 1 µg/mL | MIC (Aspergillus niger): < 1 µg/mL | MIC [2]: < 1 µg/mL | MIC (Aspergillus terreus AT49): < 1 µg/mL

CC(C)c1nc(C(C)(C)c2cccc(NC(=O)C(=O)c3c(-c4ccccc4)cc4ccccn34)c2)cn1C [Example 14, N-{3-[1-(2-Isopropyl-1-methyl-1H-imidazol-4-yl)-1-methyl-ethyl]-phenyl}-2-oxo-2-(2-phenyl-indolizin-3-yl)-acetamide]
MIC (Aspergillus flavus): 1 to 10 µg/mL (≈ 1.98 to 19.8 µM) | MIC [1]: > 10 µg/mL | MIC (Aspergillus terreus AT4): 1 to 10 µg/mL (≈ 1.98 to 19.8 µM) | MIC (Aspergillus niger): > 10 µg/mL | MIC [2]: > 10 µg/mL | MIC (Aspergillus terreus AT49): 1 to 10 µg/mL (≈ 1.98 to 19.8 µM)
